Measurements taken from ChEMBL document CHEMBL3046283, “The simple synthesis and antimicrobial activity of novel fluoroquinolone derivatives from natural amino acid salts” (2012).
Counter-ions that a name gives are not always drawn. Activity calls are given as the source filed them. The calls are words filed in the database; no cut-off is given here.

How the values were obtained:
Bacillus subtilis [1] = assay: Antibacterial activity against Bacillus subtilis at 0.2 mg/ml after 24 hr by […]; assay type: functional; settings: read-out: DIZ
Aspergillus fumigatus [2] = assay: Antifungal activity against Aspergillus fumigatus at 0.1 mg/ml after 24 hr by […]; assay type: functional, organism-based
Bacillus subtilis [3] = assay: Antibacterial activity against Bacillus subtilis at 1 mg/ml after 24 hr by […]; assay type: functional; settings: read-out: DIZ
Staphylococcus aureus [4] = assay: Antibacterial activity against Staphylococcus aureus at 0.1 mg/ml after 24 hr by […]; assay type: functional
Aspergillus fumigatus [5] = assay: Antifungal activity against Aspergillus fumigatus at 0.2 mg/ml after 24 hr by […]; assay type: functional
Staphylococcus aureus [6] = assay: Antibacterial activity against Staphylococcus aureus at 1 mg/ml after 24 hr by […]; assay type: functional; settings: for zone of inhibition at 1000 µg/mL: read-out: DIZ
Bacillus subtilis [7] = assay: Antibacterial activity against Bacillus subtilis at 0.1 mg/ml after 24 hr by […]; assay type: functional; settings: for zone of inhibition at 100 µg/mL: read-out: DIZ
Aspergillus fumigatus [8] = assay: Antifungal activity against Aspergillus fumigatus at 1 mg/ml after 24 hr by […]; assay type: functional; settings: for zone of inhibition at 1000 µg/mL: read-out: DIZ
Staphylococcus aureus [9] = assay: Antibacterial activity against Staphylococcus aureus at 0.2 mg/ml after 24 hr by […]; assay type: functional
Candida albicans = assay: Antifungal activity against Candida albicans at 0.1 to 1 mg/ml after 24 hr by […]; assay type: functional, organism-based

Structure (SMILES) | zone of inhibition at 200 µg/mL (Bacillus subtilis [1]) [mm] | diameter of the inhibition zone (DIZ) (Aspergillus fumigatus [2]) | zone of inhibition at 1000 µg/mL (Bacillus subtilis [3]) [mm] | diameter of the inhibition zone (DIZ) (Staphylococcus aureus [4]) | diameter of the inhibition zone (DIZ) (Aspergillus fumigatus [5]) | zone of inhibition at 1000 µg/mL (Staphylococcus aureus [6]) [mm] | zone of inhibition at 100 µg/mL (Bacillus subtilis [7]) [mm] | diameter of the inhibition zone (DIZ) (Aspergillus fumigatus [8]) | diameter of the inhibition zone (DIZ) (Staphylococcus aureus [9]) | diameter of the inhibition zone (DIZ) (Candida albicans) | diameter of the inhibition zone (DIZ) (Bacillus subtilis [7]) | zone of inhibition at 1000 µg/mL (Aspergillus fumigatus [8]) [mm] | diameter of the inhibition zone (DIZ) (Staphylococcus aureus [6]) | zone of inhibition at 100 µg/mL (Staphylococcus aureus [4]; read-out: DIZ) [mm] | zone of inhibition at 200 µg/mL (Staphylococcus aureus [9]; read-out: DIZ) [mm] | zone of inhibition at 200 µg/mL (Aspergillus fumigatus [5]; read-out: DIZ) [mm]
CCC(C)C(C(=O)O)n1cc(C(=O)O)c(=O)c2cc(F)c(N3CCN(C)CC3)c(F)c21 (stereo not given) | 1.15 | inactive | 1.2 | inactive | inactive | 0.6 | 0.6 | inactive | inactive | inactive | – | – | – | – | – | –
CC(C)CC(C(=O)O)n1cc(C(=O)O)c(=O)c2cc(F)c(N3CCN(C)CC3)c(F)c21 (stereo not given) | 0.95 | inactive | 1.15 | inactive | inactive | 0.6 | – | inactive | inactive | inactive | inactive | – | – | – | – | –
CN1CCN(c2c(F)cc3c(=O)c(C(=O)O)cn(C(Cc4ccccc4)C(=O)O)c3c2F)CC1 (stereo not given) | 0.95 | inactive | 1.2 | inactive | inactive | 0.8 | – | – | inactive | inactive | inactive | 0.75 | – | – | – | –
CC(C)C(C(=O)O)n1cc(C(=O)O)c(=O)c2cc(F)c(N3CCN(C)CC3)c(F)c21 (stereo not given) | 0.7 | inactive | 1 | inactive | inactive | – | – | inactive | inactive | inactive | inactive | – | inactive | – | – | –
CN1CCN(c2c(F)cc3c(=O)c(C(=O)O)cn(C(C(=O)O)c4ccccc4)c3c2F)CC1 (stereo not given) | 0.9 | inactive | 1.05 | inactive | inactive | 0.6 | 0.6 | – | inactive | inactive | – | 0.6 | – | – | – | –
C[C@H]1COc2c(N3CCN(C)CC3)c(F)cc3c(=O)c(C(=O)O)cn1c23 [LEVOFLOXACIN HYDROCHLORIDE] | 3.8 | inactive | 4.6 | – | inactive | 3.3 | 3.6 | inactive | – | inactive | – | – | – | 2.6 | 2.9 | –
CN1CCN(c2c(F)cc3c(=O)c(C(=O)O)cn(CC(=O)O)c3c2F)CC1 | 0.9 | inactive | 1.1 | inactive | – | 0.7 | 0.65 | – | inactive | inactive | – | 1 | – | – | – | 0.6
